Target: ATP-binding cassette sub-family C member 11 (Homo sapiens) (UniProt Q96J66)
Assay: TP_TRANSPORTER: transport into inside-out membrane vesicles in membrane vesicle from MRP8-2-expressing LLC-PK1 cells
Format: functional, cell membranes

ATP-binding cassette sub-family C member 11 (Homo sapiens), sequence (Q96J66 whole entry): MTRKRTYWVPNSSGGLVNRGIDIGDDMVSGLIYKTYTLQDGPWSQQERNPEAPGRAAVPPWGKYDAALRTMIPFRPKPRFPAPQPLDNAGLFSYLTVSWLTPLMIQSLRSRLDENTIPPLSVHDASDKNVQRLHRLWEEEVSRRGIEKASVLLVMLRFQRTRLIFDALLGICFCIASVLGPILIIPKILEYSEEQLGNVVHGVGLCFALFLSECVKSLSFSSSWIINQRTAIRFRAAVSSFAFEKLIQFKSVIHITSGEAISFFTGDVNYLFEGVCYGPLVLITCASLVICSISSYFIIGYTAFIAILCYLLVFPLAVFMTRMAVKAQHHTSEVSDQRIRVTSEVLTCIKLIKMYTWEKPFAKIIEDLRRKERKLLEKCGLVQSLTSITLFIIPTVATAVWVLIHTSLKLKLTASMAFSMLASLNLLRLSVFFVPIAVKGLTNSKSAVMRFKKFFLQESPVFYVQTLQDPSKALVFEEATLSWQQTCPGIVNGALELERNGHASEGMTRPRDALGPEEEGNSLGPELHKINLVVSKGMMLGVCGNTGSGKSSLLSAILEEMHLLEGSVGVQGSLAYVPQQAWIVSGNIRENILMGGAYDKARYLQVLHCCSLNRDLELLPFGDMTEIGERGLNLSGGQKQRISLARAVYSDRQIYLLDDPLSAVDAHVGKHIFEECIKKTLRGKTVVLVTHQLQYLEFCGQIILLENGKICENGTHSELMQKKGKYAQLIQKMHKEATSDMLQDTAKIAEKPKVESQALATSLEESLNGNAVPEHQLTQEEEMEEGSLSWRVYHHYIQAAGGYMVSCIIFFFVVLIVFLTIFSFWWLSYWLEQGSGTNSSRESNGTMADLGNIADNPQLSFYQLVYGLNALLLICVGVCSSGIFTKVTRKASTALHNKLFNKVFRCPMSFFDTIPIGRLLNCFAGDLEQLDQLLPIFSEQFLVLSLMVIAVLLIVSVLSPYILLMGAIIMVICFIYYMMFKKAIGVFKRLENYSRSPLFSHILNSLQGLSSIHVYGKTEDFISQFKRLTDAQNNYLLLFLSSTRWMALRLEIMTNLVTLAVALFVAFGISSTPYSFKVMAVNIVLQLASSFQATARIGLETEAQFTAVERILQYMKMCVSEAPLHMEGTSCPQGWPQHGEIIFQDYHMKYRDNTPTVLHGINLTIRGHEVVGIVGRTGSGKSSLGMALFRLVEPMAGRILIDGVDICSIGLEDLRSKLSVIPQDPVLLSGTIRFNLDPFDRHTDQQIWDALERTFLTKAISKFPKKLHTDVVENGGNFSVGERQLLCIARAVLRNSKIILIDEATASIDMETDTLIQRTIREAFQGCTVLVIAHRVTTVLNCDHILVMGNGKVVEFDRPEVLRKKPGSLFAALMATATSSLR

Activity: substrate []
Compound: O=c1[nH]c(=O)n([C@H]2C[C@H](O)[C@@H](COP(=O)(O)O)O2)cc1F

— ChEMBL document CHEMBL2073741, “MRP8, ATP-binding cassette C11 (ABCC11), is a cyclic nucleotide efflux pump and a resistance factor for fluoropyrimidines 2',3'-dideoxycytidine and 9'-(2'-phosphonylmethoxyethyl)adenine” (J Biol Chem, 2003)
